Patent publication US6855730B2, “3-methylidenyl-2-indolinone modulators of protein kinase” (Sugen, Inc., priority 1998, dated 2005)

Biological target: T1, PDGFR-β (Homo sapiens, UniProt P09619)
T1 construct: host or cells: NIH 3T3
Experiment: Biochemical PDGFR assay (ELISA, PDGFR-β expressing NIH 3T3 cell lysate)
Conditions: read-out: bio PDGF IC50
In short: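 Phosphorylation was read by ELISA (anti-phosphotyrosine serum, peroxidase secondary, ABTS at 410 nm) after a 30 min room-temperature reaction with 20 μM ATP, EDTA-stopped. Kinase was lysate-derived PDGFR-β (NIH 3T3) immobilised via 28D4C10 antibody, compound added 30 min before ATP.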

T1 sequence (P09619 33-1106): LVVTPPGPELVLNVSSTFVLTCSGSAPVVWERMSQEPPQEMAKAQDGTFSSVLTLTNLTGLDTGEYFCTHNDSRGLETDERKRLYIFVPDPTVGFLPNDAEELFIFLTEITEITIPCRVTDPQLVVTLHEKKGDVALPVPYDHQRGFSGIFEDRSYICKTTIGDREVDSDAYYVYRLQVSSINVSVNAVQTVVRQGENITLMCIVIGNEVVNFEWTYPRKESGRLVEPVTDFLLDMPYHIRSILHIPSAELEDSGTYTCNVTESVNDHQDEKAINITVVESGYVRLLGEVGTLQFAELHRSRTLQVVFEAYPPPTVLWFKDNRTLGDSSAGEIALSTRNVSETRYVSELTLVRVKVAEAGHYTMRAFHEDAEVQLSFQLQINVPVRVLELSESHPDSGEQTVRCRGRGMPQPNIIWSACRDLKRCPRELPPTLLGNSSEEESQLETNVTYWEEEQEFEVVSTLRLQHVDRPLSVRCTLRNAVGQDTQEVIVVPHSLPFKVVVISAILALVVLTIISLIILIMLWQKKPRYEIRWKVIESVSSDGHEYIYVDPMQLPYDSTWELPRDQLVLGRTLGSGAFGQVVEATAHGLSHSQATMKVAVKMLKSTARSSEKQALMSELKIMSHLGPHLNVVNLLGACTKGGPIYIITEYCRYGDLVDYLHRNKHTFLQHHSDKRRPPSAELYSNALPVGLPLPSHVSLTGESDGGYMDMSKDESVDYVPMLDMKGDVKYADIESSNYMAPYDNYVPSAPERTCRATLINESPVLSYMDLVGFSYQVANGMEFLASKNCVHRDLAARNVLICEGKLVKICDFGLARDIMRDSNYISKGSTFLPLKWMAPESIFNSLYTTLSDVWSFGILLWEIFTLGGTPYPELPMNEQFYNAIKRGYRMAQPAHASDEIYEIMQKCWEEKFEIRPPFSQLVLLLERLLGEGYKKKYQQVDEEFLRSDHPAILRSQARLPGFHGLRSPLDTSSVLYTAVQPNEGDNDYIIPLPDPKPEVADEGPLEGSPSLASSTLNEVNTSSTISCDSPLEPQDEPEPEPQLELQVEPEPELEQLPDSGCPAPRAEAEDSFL

SMILES: O=C1Nc2ccc(Br)cc2/C1=C/c1cc2ccccc2[nH]1 [Example 165, 5-Bromo-3-(1H-indol-2-ylmethylene)-1,3-dihydro-indol-2-one]
- IC50: 48.7 µM

SMILES: Cc1cccc2c1/C(=C/c1cc3ccccc3[nH]1)C(=O)N2 [Example 166, 3-(1H-indol-2-ylmethylene)-4-methyl-1,3-dihydro-indol-2-one]
- IC50: > 100 µM
